# Results: patent US20220291237A1 (priority 2021, published 2022)
# Entries after “also recorded” stand apart in the source; their conditions may differ. Where two headings read alike, the source gives them in different places.
# B1: MIG: recombinant mouse MIG (R&D systems, catalog number 492-MM) (protein, UniProt Q07325 23-125, looked up)
# C-X-C motif chemokine 9: TPVVRKGRCSCISTNQGTIHLQSLKDLKQFAPSPSCEKIEIIATLKNGVQTCLNPDSADVKELIKKWEKQVSQKKKQKNGKKHQKKKVLKVRKSQRSRQKKTT
# What was measured:
# TNFSF10 = system: TNFSF10; design: species or system human
# TNFSF10, sequence (P50591 whole entry): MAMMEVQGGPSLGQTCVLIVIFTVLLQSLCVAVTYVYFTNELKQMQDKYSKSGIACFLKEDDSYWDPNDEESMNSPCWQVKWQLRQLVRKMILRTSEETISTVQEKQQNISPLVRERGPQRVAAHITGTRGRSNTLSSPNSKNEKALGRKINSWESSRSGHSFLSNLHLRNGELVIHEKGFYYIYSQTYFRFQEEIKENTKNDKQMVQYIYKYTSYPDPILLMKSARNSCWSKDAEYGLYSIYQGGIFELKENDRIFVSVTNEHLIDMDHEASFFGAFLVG
# IFNG = system: IFNG; design: species or system human
# CXCL1 = system: CXCL1; design: species or system human
# MIG = system: MIG; design: species or system human
# aromatase = aromatase (Homo sapiens, UniProt P11511); conditions: in vivo; cited from earlier work
# aromatase, sequence (P11511 whole entry): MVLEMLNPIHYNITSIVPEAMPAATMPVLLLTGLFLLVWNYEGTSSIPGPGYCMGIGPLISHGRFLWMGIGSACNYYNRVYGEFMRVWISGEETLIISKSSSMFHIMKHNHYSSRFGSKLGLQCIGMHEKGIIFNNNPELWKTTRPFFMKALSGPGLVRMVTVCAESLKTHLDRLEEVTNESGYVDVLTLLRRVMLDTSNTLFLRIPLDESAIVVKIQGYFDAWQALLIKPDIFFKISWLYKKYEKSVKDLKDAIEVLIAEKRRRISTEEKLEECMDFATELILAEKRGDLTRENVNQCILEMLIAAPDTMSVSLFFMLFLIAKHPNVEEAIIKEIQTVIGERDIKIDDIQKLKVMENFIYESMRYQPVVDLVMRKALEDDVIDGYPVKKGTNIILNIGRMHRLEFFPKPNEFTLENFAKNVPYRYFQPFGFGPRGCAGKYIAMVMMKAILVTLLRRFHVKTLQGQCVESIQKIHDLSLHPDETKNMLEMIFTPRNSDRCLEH
# CCL11 = assay: Drugs that upregulate or downregulate iAge marker (Table 9); design: species or system human; conditions: GENE CCL11; beneficial (lowers) or detrimental (raises) to iAge
# Mouse thoracic aortas = assay: Acetylcholine relaxation of mouse thoracic aortic rings on wire myograph after MIG; conditions: increasing concentrations of recombinant mouse MIG, precontracted with U46619
# Procedure: Mouse thoracic aortas were carefully dissected, and vessels were cut into small rings and mounted on an isometric wire myograph chambers (Danish Myo Technology) and subjected to a normalization protocol. Following normalization, the vessels were incubated with either PBS or different concentrations of recombinant mouse MIG (R&D systems, catalog number 492-MM). A concentration-dependent contraction curve was created by accumulative application of the prostaglandin agonist U46619. Subsequently, concentration-dependent relaxation curves of Acetylcholine were conducted on these vessels and percent relaxation calculated for each dose.
# [1] = GENE TNFSF10, beneficial (lowers) or detrimental (raises) to iAge
# [2] = GENE IFNG, beneficial (lowers) or detrimental (raises) to iAge
# [3] = GENE CXCL1, beneficial (lowers) or detrimental (raises) to iAge
# [4] = GENE CXCL9 (MIG), beneficial (lowers) or detrimental (raises) to iAge
molecule,measurement,setting,value
CC(=O)Nc1ccc(O)cc1 [Acetaminophen],EFFECT,TNFSF10,Detrimental
"CC(=O)N[C@@H](CS)C(=O)O [Acetylcysteine, reference compound]",EFFECT,TNFSF10; [1],Detrimental
"CC1=C(/C=C/C(C)=C\C=C\C(C)=C\C(=O)O)C(C)(C)CCC1 [Alitretinoin, reference compound]",EFFECT,IFNG; [2],Detrimental
same,EFFECT,TNFSF10; [1],Beneficial
same,EFFECT,CXCL1; [3],Detrimental
CC1=C(/C=C/C(C)=C/C=C/C(C)=C/C=C/C=C(C)/C=C/C=C(C)/C=C/C2=C(C)CCCC2(C)C)C(C)(C)CCC1 [Beta carotene],EFFECT,TNFSF10,Beneficial
same,EFFECT,MIG,Detrimental
"CC(C)C[C@H](NC(=O)[C@H](Cc1ccccc1)NC(=O)c1cnccn1)B(O)O [Bortezomib, reference compound]",EFFECT,TNFSF10; [1],Detrimental
same,EFFECT,CXCL1; [3],Beneficial
"COc1cc(CNC(=O)CCCC/C=C/C(C)C)ccc1O [Capsaicin, reference compound]",EFFECT,TNFSF10; [1],Beneficial
[Cr] [Chromium],EFFECT,TNFSF10; [1],Detrimental
CN/C(=N/CCSCc1nc[nH]c1C)NC#N [Cimetidine],EFFECT,IFNG,Beneficial
N.N.[Cl][Pt][Cl] [Cisplatin],EFFECT,TNFSF10; [1],Beneficial
Nc1ccn([C@@H]2O[C@H](CO)[C@@H](O)[C@@H]2O)c(=O)n1 [Cytarabine],EFFECT,TNFSF10; [1],Beneficial
"Nc1ncn([C@H]2C[C@H](O)[C@@H](CO)O2)c(=O)n1 [Decitabine, 5-aza-2′-deoxycytidine, reference compound]",EFFECT,TNFSF10; [1],Beneficial
COc1cccc2c1C(=O)c1c(O)c3c(c(O)c1C2=O)C[C@@](O)(C(=O)CO)C[C@@H]3O[C@H]1C[C@H](N)[C@H](O)[C@H](C)O1 [Doxorubicin],EFFECT,TNFSF10; [1],Beneficial
"CCCCCc1cc(O)c2c(c1)OC(C)(C)[C@@H]1CCC(C)=C[C@@H]21 [Dronabinol, reference compound]",EFFECT,IFNG; [2],Detrimental
C=CCc1ccc(O)c(OC)c1 [Eugenol],EFFECT,CXCL1; [3],Beneficial
"O=c1[nH]cc(F)c(=O)[nH]1 [Fluorouracil, reference compound]",EFFECT,TNFSF10; [1],Beneficial
[Gd] [Gadolinium],EFFECT,IFNG; [2],Beneficial
Nc1ccn([C@@H]2O[C@H](CO)[C@@H](O)C2(F)F)c(=O)n1 [Gemcitabine],EFFECT,CXCL1; [3],Beneficial
"NCCc1c[nH]cn1 [Histamine, reference compound]",EFFECT,IFNG,Detrimental
[Fe] [Iron],EFFECT,TNFSF10; [1],Beneficial
CC1=C(/C=C/C(C)=C/C=C/C(C)=C\C(=O)O)C(C)(C)CCC1 [Isotretinoin],EFFECT,TNFSF10; [1],Beneficial
same,EFFECT,CXCL1; [3],Detrimental
N#Cc1ccc(C(c2ccc(C#N)cc2)n2cncn2)cc1 [Letrozole],reduction of estrogen levels,aromatase,98%
CC#C[C@]1(O)CC[C@H]2[C@@H]3CCC4=CC(=O)CCC4=C3[C@@H](c3ccc(N(C)C)cc3)C[C@@]21C [Mifepristone],EFFECT,CXCL1; [3],Detrimental
O=O [Oxygen],EFFECT,IFNG,Beneficial
same,EFFECT,TNFSF10,Beneficial
Oc1cccc2cccnc12 [Oxyquinoline],EFFECT,TNFSF10,Beneficial
"CC(=O)CCCCn1c(=O)c2c(ncn2C)n(C)c1=O [Pentoxifylline, reference compound]",EFFECT,TNFSF10; [1],Beneficial
CN1C(C(=O)Nc2ccccn2)=C(O)c2ccccc2S1(=O)=O [Piroxicam],EFFECT,CXCL1; [3],Detrimental
C[C@]12C=CC(=O)C=C1CC[C@@H]1[C@@H]2[C@@H](O)C[C@@]2(C)[C@H]1CC[C@]2(O)C(=O)CO [Prednisolone],EFFECT,CXCL1,Detrimental
CC(=O)[C@H]1CC[C@H]2[C@@H]3CCC4=CC(=O)CC[C@]4(C)[C@H]3CC[C@]12C [Progesterone],EFFECT,TNFSF10; [1],Detrimental
same,EFFECT,MIG; [4],Detrimental
same,EFFECT,CXCL1; [3],Detrimental
"Oc1ccc(/C=C/c2cc(O)cc(O)c2)cc1 [Resveratrol, 3,5,4′-trihydroxy-trans-stilbene]",EFFECT,IFNG; [2],Detrimental
same,EFFECT,CCL11,Beneficial
same,EFFECT,CXCL1; [3],Detrimental
"NC(=O)c1ncn([C@@H]2O[C@H](CO)[C@@H](O)[C@H]2O)n1 [Ribavirin, reference compound]",EFFECT,IFNG; [2],Detrimental
[Se] [Selenium],EFFECT,TNFSF10; [1],Detrimental
same,EFFECT,MIG; [4],Beneficial
same,EFFECT,CXCL1; [3],Beneficial
[Ag] [Silver],EFFECT,TNFSF10; [1],Detrimental
O=C([O-])CC([S-])C(=O)[O-].[Au+].[Na+].[Na+] (stereo not drawn) [Sodium aurothiomalate],EFFECT,CXCL1; [3],Detrimental
O.O.O.O.O.O.O.O.O.O=C([O-])[C@@H]1[O][Sb]2([O-])([O][Sb]34([OH])[O][C@H]([C@H](O)CO)[C@H]([O]3)[C@H](C(=O)[O-])[O]4)[O][C@H]([C@H](O)CO)[C@@H]1[O]2.[Na+].[Na+].[Na+] [Sodium stibogluconate],EFFECT,IFNG; [2],Detrimental
C=CC[C@@H]1/C=C(\C)C[C@H](C)C[C@H](OC)[C@H]2O[C@@](O)(C(=O)C(=O)N3CCCC[C@H]3C(=O)O[C@H](/C(C)=C/[C@@H]3CC[C@@H](O)[C@H](OC)C3)[C@H](C)[C@@H](O)CC1=O)[C@H](C)C[C@@H]2OC [Tacrolimus],EFFECT,CCL11,Beneficial
Cn1c(=O)c2[nH]cnc2n(C)c1=O [Theophylline],EFFECT,IFNG,Detrimental
"CC1=C(/C=C/C(C)=C/C=C/C(C)=C/C(=O)O)C(C)(C)CCC1 [Tretinoin, reference compound]",EFFECT,IFNG; [2],Detrimental
same,EFFECT,TNFSF10; [1],Beneficial
same,EFFECT,CXCL1; [3],Detrimental
CC[C@]1(O)C[C@H]2CN(CCc3c([nH]c4ccccc34)[C@@](C(=O)OC)(c3cc4c(cc3OC)N(C=O)[C@H]3[C@@](O)(C(=O)OC)[C@H](OC(C)=O)[C@]5(CC)C=CCN6CC[C@]43[C@@H]65)C2)C1 [Vincristine],EFFECT,IFNG; [2],Beneficial
same,EFFECT,TNFSF10; [1],Beneficial
same,EFFECT,MIG; [4],Detrimental
"O=C(CCCCCCC(=O)Nc1ccccc1)NO [Vorinostat, reference compound]",EFFECT,TNFSF10; [1],Beneficial
O=S(=O)([O-])[O-].[Zn+2] [Zinc sulfate],EFFECT,IFNG,Beneficial
[Zn] [Zinc],EFFECT,IFNG; [2],Beneficial
same,EFFECT,CCL11,Detrimental
"CN(Cc1cnc2nc(N)nc(N)c2n1)c1ccc(C(=O)N[C@@H](CCC(=O)O)C(=O)O)cc1 [methotrexate, Methotrexate, reference compound]",EFFECT,IFNG; [2],Detrimental
same,EFFECT,TNFSF10; [1],Beneficial
same,EFFECT,CCL11,Beneficial
same,EFFECT,CXCL1; [3],Detrimental; also recorded: Beneficial
Arsenic trioxide,EFFECT,TNFSF10; [1],Detrimental; also recorded: Beneficial
same,EFFECT,MIG; [4],Beneficial
Vitamin E,EFFECT,TNFSF10; [1],Detrimental
B1,effect on vasorelaxation to Acetylcholine,Mouse thoracic aortas,impairs vascular function
